Laboratory results from patent US5494895A, “Scorpion peptide margatoxin with immunosuppressant activity” (Merck & Co., Inc., priority 1993, dated 1996).
Peptide text beside a SMILES is read from it.

Tests used:
[1] = target: T1, Kv 1.3 of human T lymphocytes (Homo sapiens, UniProt P22001); test: [125I]ChTX binding to human T cells
T1 construct: endogenous in cells; host or cells: purified human peripheral blood T lymphocytes
Method: (§1) In addition to being tested for competition for [^125 I]ChTX binding to rat brain and bovine aortic smooth muscle, MgTX was evaluated for its effects on [^125 I]ChTX binding to human T lymphocytes and to plasma membranes prepared from Jurkat cells, a human T-cell leukemia line. MgTX competition for [^125 I]ChTX binding to human T cells was performed as described by Lin, et al., J. Exp. Med. 177, 637-645, 1993. Binding experiments using monocyte-depleted, E-rosetted human T cells were carried out in isotonic sucrose with 5 mM KCl, 5 mM NaCl, 6 mM glucose and 10 mM HEPES, pH 8.0 until equilibrium was achieved. The procedure for binding to plasma membranes from Jurkat Cells is similar except that the binding solution was 3 mM KCl, 7 mM NaCl, 10 mM HEPES, pH 8.0. Free ligand was removed from bound by filtration through Whatman GF/C glass fiber filters (pretreated with 0.5% polyethylenimine). […] Hill coefficients were 2 in both cases.

[2] = target: T2, Kv 1.3 in plasma membranes from Jurkat cells (Homo sapiens, UniProt P22001); test: [125I]ChTX binding to plasma membranes from Jurkat cells
T2 construct: plasma membranes prepared from Jurkat cells, a human T-cell leukemia line; endogenous in cells; host or cells: Jurkat cells (plasma membranes)
Method: as §1

[3] = target: T3, lymphocyte Kv 1.3 current (Homo sapiens, UniProt P22001); test: Whole cell patch clamp of human peripheral T-lymphocytes; format: cell-based
T3 construct: endogenous in cells; host or cells: purified human peripheral blood T lymphocytes
Method: Ionic currents were recorded from human peripheral T-lymphocytes using the whole cell patch clamp technique described in Cahalan, M. and Neher, E., Meth. Enzymol. 207, 3, 1992. Purified human T cells were obtained as described in Leonard et al., Proc. Natl. Acad. Sci. U.S.A., 89, 10094, 1992, and recordings were carried out in a bath solution consisting of ^125 mM NaCl, 2.5 mM KCl, 1.0 mM CaCl2, 2.0 mM MgCl2, 10 mM HEPES (potassium salt), 10 mM glucose, 5 mM Na-pyruvate, and 0.05% BSA. The pH was adjusted to 7.2, and experiments were performed at room temperature (19°-22° C.). The intracellular (pipette) solution contained 140 mM K-glutamate, 1 mM MgCl2, 10 mM HEPES (potassium salt), and 0.1 mM EGTA. The pH was adjusted to 7.2. Patch pipettes were fabricated from DAGAN (Minneapolis, Minn.) LG-16 glass and had resistances of 2 to 8M.OMEGA.. Currents were measured using a DAGAN model 3900 patch clamp. Delivery of command voltages, data acquisition, and post-acquisition analysis were aided by a microcomputer running the Pclamp program suite (AXON INSTRUMENTS, Foster City, Calif.).
Methods for oocyte isolation and micro-injection were previously described in Goldin, Meth. Cell Biol, 36, 487, 1991, and Swanson and Folander, Meth. Enzymol., 207, 310, 1992. Currents expressed in oocytes were measured using a DAGAN model CA-1 two-electrode voltage clamp. Delivery of command voltages, data acquisition and post-acquisition analysis were aided by a microcomputer running the Pclamp program suite. The oocyte bathing solution consisted of 96 mM NaCl, 2.5 mM KCl, 1 mM MgCl2, 1.8 mM CaCl2, 10 mM HEPES, and 0.05% BSA. The pH was 7.2. All recordings were obtained at room temperature (19°-22° C.). The intracellular microelectrodes were fabricated from DAGAN LE-16 glass in a two-stage pull to a final resistance of 0.6 to 2M.OMEGA. and filled with 3M KCl. For both lymphocyte and oocyte experiments, peptides were diluted into the extracellular solution from 20 μM aqueous stock containing 100 mM NaCl. The presence of 0.05% BSA in the bath solution inhibited non-specific loss of dilute peptide toxins in the perfusion tubing.
Both native and recombinant MgTX were tested for their ability to block voltage gated K^+ channels. […] There was insufficient native toxin to carry out selectivity studies, so those were conducted using the recombinant material exclusively. […] The apparent IC50 for inhibition of the lymphocyte Kv 1.3 current is between 20 to 100 pM. […] As reported previously, MgTX has no effect on three different ChTX-sensitive, Ca^2+ -activated K^+ channels of lymphocytes, even at 100 nM (Leonard et al., Proc. Natl. Acad. Sci. U.S.A. 89, 10094, 1992).

T3 sequence (P22001 whole entry): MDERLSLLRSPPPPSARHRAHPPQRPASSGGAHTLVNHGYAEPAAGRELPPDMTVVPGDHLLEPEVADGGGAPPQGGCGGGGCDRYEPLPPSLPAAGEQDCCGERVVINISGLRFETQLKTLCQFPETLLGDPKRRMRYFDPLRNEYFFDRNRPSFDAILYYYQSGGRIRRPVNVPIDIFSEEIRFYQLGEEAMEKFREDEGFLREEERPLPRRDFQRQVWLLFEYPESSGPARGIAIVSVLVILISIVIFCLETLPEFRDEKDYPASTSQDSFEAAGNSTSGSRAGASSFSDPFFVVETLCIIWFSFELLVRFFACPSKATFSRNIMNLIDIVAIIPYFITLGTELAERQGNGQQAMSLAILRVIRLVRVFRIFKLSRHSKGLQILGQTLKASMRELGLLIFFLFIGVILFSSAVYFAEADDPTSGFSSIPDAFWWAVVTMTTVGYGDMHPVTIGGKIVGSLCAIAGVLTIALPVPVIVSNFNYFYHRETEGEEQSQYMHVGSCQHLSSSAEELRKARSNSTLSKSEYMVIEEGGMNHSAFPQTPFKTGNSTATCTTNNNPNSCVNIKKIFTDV
T2 sequence (P22001 whole entry): as above
T1 sequence (P22001 whole entry): as above

## CC[C@H](C)[C@H](NC(=O)[C@@H](N)[C@@H](C)O)C(=O)N[C@H](C(=O)N[C@@H](CC(N)=O)C(=O)N[C@H](C(=O)N[C@@H](CCCCN)C(=O)N[C@H]1CSSC[C@@H]2NC(=O)[C@H](CCCCN)NC(=O)[C@H](C)NC(=O)CNC(=O)[C@H](C)NC(=O)[C@H](CO)NC(=O)[C@H](CCC(N)=O)NC(=O)CNC(=O)[C@H](Cc3ccccc3)NC(=O)[C@H](CCC(N)=O)NC(=O)[C@H](C)NC(=O)[C@H](CCCCN)NC(=O)[C@@H]3CSSC[C@@H](C(=O)N[C@@H](Cc4ccc(O)cc4)C(=O)N4CCC[C@H]4C(=O)N[C@@H](Cc4c[nH]cn4)C(=O)O)NC(=O)[C@H](CCCCN)NC(=O)[C@H](CSSC[C@H](NC(=O)[C@H](CCC(N)=O)NC(=O)[C@H](CCCCN)NC(=O)[C@@H]4CCCN4C(=O)[C@H](CO)NC(=O)[C@H]([C@@H](C)O)NC1=O)C(=O)N[C@@H](CC(C)C)C(=O)N1CCC[C@H]1C(=O)N1CCC[C@H]1C(=O)N3)NC(=O)[C@H](CCCCN)NC(=O)CNC(=O)[C@H](CC(N)=O)NC(=O)[C@H](CCSC)NC2=O)C(C)C)[C@@H](C)CC [MgTX, Margatoxin] (HELM PEPTIDE1{T.I.I.N.V.K.C.T.S.P.K.Q.C.L.P.P.C.K.A.Q.F.G.Q.S.A.G.A.K.C.M.N.G.K.C.K.C.Y.P.H}$PEPTIDE1,PEPTIDE1,7:R3-29:R3|PEPTIDE1,PEPTIDE1,13:R3-34:R3|PEPTIDE1,PEPTIDE1,17:R3-36:R3$$$V2.0; N-terminus and C-terminus assumed; bridges inferred)
[1]
  Hill coefficient: 2
[1]; isotonic sucrose, pH 8.0, read-out: IC50 for inhibition of [125I]ChTX binding
  IC50: 1.4 pM
[2]
  Hill coefficient: 2
[2]; pH 8.0, read-out: IC50 for inhibition of [125I]ChTX binding
  IC50: 2.7 pM
[3]
  t1/2 of recovery from block following removal from the bath: > 20 min
[3]; at 1 nM
  inhibition of the voltage activated K+ channel from human lymphocytes: Complete inhibition
[3]; lymphocyte Kv 1.3 current
  potency relative to ChTX on the same preparation: five to ten-fold more potent
[3]; read-out: apparent IC50 for inhibition of the lymphocyte Kv 1.3 current
  IC50: 20 to 100 pM
